Experimental data published in ChEMBL document CHEMBL1146161, “Synthesis and anti-HIV properties of new hydroxyquinoline-polyamine conjugates on cells infected by HIV-1 LAV and HIV-1 BaL viral strains” (Bioorg Med Chem Lett, 2006).
Active and inactive are the calls of the source. The rule behind the calls is not given here.

Legend:
[1] = test system: Human immunodeficiency virus 1; assay: Antiviral activity against HIV1 LAV in PBMC; assay type: functional, organism-based; conditions: for EC50: Human immunodeficiency virus 1, LAV
[2] = test system: Human immunodeficiency virus 1; assay: Antiviral activity against HIV1 BaL in PBMC; assay type: functional, organism-based; conditions: for EC50: Human immunodeficiency virus 1, BaL
[3] = Cytotoxicity against PBMC; assay type: cell-based; conditions: human

Structure (SMILES) | EC50 [1] [µM] | EC50 [2] [µM] | CC50 [3] [µM] | Activity [2] | Activity [1]
Oc1ccc(CN2CCCNCCNCCCNCC2)c2cccnc12 | 4.1 | 4.35 | > 10 | – | –
Oc1ccc(CN2CCCNCCN(Cc3ccc(CN4CCCNCCNCCCNCC4)cc3)CCCNCC2)c2cccnc12 | 0.7 | 3.5 | > 10 | – | –
c1cc(CN2CCCNCCNCCCNCC2)cc(CN2CCCNCCNCCCNCC2)c1 | 0.05 | – | > 10 | inactive | –
Oc1ccc(CNCCCNCc2ccc(O)c3ncccc23)c2cccnc12 | – | – | > 10 | inactive | inactive
Oc1ccc(CN2CCCN(Cc3ccc(O)c4ncccc34)CCNCCCNCC2)c2cccnc12 | 4.1 | – | 8 | Toxic | –
Oc1ccc(CCl)c2cccnc12 | 5.1 | – | > 10 | inactive | –
c1cc(CN2CCCNCCNCCCNCC2)ccc1CN1CCCNCCNCCCNCC1 [PLERIXAFOR] | 0.47 | – | > 10 | inactive | –
Oc1ccc(CNCc2ccc(CNCc3ccc(O)c4ncccc34)cc2)c2cccnc12 | – | – | > 10 | inactive | inactive
Oc1c(I)cc(Cl)c2cccnc12 [CLIOQUINOL] | – | – | 2 | inactive | inactive
Oc1ccc(CN2CCCNCCCNCCNCCC2)c2cccnc12 | 1.5 | 1.25 | > 10 | – | –
Oc1ccc(CN2CCN(Cc3ccc(O)c4ncccc34)CC2)c2cccnc12 | – | – | > 10 | inactive | inactive
